In brackets after ≈: the same amount, converted by molar mass.
What was measured:
[1] = Drug loading into PBAE microparticles (loading efficiency, surface vs bulk drug); assay type: physicochemical; conditions: pre-loaded; 100 mg/mL drug solution
Protocol: FIG. 6A graphically represents the processing method for creating PBAE microparticles, as well as the differences between pre- and post-loaded particles. […] This ratio allowed particles to swell without excess solution remaining, and expected drug loads were calculated under the assumption that all drug solution was imbibed by the microparticles. Particles were lyophilized overnight, briefly re-ground and sieved to break up aggregates, and stored in a vacuum chamber with desiccant. […] Drug-loaded PBAE slabs were ground with 75 wt % HA into particles and stored in a vacuum chamber with desiccant. Predicted values for drug loading using the pre-loading method were obtained by calculating swelling of PBAE in solution based on mass increase and assuming drug was homogeneously present in swollen hydrogels as well as surrounding solution. […] The mixtures containing ethanol and swollen PBAE microparticles were then centrifuged, and supernatants were analyzed using HPLC to detect simvastatin, as described below. Clodronate loading was measured with an identical technique using 50% ethanol, and was detected by absorbance as described below. […] Drug detected in the initial wash was deemed loosely bound to the surface of particles, while drug detected after the 24 hour soak was determined to be imbibed into the bulk of the particles.

[2] = In vitro drug release from in situ forming PLGA scaffolds in PBS (Example 1); assay type: physicochemical; conditions: for burst release within one day: freely mixed
Protocol: PLGA was added to NMP and stirred overnight until fully dissolved to create a 20 wt/wt % PLGA solution. […] HA was also mixed homogeneously prior to injection to bring the final mixture to 30 wt % HA. Clodronate-loaded PBAE microparticles pre-loaded with 50 mg/mL clodronate were added using an identical technique. […] FIG. 6B illustrates the differences between the proposed system and a traditional injectable system. Simvastatin and clodronate were measured as described below.
The scaffold mixture was injected dropwise through a 16 gauge, blunt-tipped dispensing needle into PBS at 5% wt/vol. Upon contacting PBS, surface PLGA immediately began to precipitate, forming semi-spherical scaffolds approximately 3 mm in diameter that sank to the bottom of the vial. Samples were kept in an incubator at 37° C. on a plate shaker for the duration of the study. Supernatant was collected and replaced at each time point, and these samples were preserved at 4° C. until analysis. Clodronate release was measured for three loading conditions: freely mixed clodronate without HA filler, freely mixed clodronate with HA filler, and clodronate pre-loaded into PBAE microparticles with HA filler. Because PBAE microparticles were fabricated with HA as a dispersing agent, drug release from loaded particles was not investigated without HA filler. Simvastatin release was measured for three loading conditions: freely mixed simvastatin without HA filler, freely mixed simvastatin with HA filler, and simvastatin pre-loaded into PBAE microparticles with HA filler.
Clodronate from collected supernatants were measured using a Powerwave HT (Biotek; Winooski, Vt., USA). In vitro release supernatant was pipetted into a UV-grade 96-well plate (Greiner Bio-One, Frickenhausen, Germany), and baseline absorbance was measured at 240 nm.
Drug release from polymeric systems is often analyzed using an adaptation of the Higuchi model by Peppas et al., widely known as the power law, to characterize release kinetics (Siepmann J, Peppas N A. Modeling of drug release from delivery systems based on hydroxypropyl methylcellulose (HPMC). Advanced Drug Delivery Reviews 2001; 48:139-57):
[formula] represents Tractional release or drug at time t, k is a constant encompassing scaffold and drug properties, and it is the release exponent used to characterize drug release. In the case of the spherical geometry (consistent with scaffolds formed via dropwise injection), n=0.43 corresponds to pure Fickian diffusion, n=0.85 corresponds to pure case II (polymer relaxation-based) transport, and values in between are combinations of the two, termed anomalous transport (Siepmann J, Peppas N A. Modeling of drug release from delivery systems based on hydroxypropyl methylcellulose (HPMC). Advanced Drug Delivery Reviews 2001; 48:139-57). Plots of
[formula] so release data were truncated to below 60% cumulative release when calculating n. Mass Loss and Degradation

O=P(O)(O)C(Cl)(Cl)P(=O)(O)O [clodronate]
loading efficiency [1]: 59% | solubility (physchem; aqueous with cosolvent or surfactant or cyclodextrin): 20 mg/mL (≈ 81.7 mM) | solubility (physchem; water): ≥ 100 mg/mL | release rate ([2]; all loading conditions, day 20 through day 31): 3 %/day | release rate ([2]; freely mixed without HA, through day 19): 0.6 %/day | burst release within one day ([2]; with HA filler): 32% | burst release within one day ([2]; without HA): 49% | release rate ([2]; mixed with HA, through day 19): 1.3 %/day | release exponent n (power law) ([2]; pre-loaded drug, initial release during burst (first day)): 0.49 | 1 day burst release ([2]; pre-loaded into PBAE microparticles, with HA filler): 32% | release rate ([2]; pre-loaded into microparticles, through day 19): 1.3 %/day

— patent US10682442B2, “Small molecule drug release from in situ forming degradable scaffolds incorporating hydrogels and bioceramic microparticles” (University of Kentucky Research Foundation, priority 2014, dated 2020)
